From article PMC8207694, “Nucleoside transporter-guided cytarabine-conjugated liposomes for intracellular methotrexate delivery and cooperative choriocarcinoma therapy” (Journal of Nanobiotechnology, 2021)

Experiments:
JEG-3 tumor models = experiment: In vivo antitumor study; design: species or system BALB/c nude mice
Method: When tumors were 50–100 mm^3 in size, nude mice were intravenously administrated with saline or MTX formulations (free MTX, MTX + Cy-lipid, Lipo@MTX, or Cy-Lipo@MTX, 5 mg MTX-equivalent/kg body weight, each group contained 6 mice) on day 6, 9, 12, 14, 18, and 21. On the 24th day, the mice were sacrificed, and the tumors, as well as the main organs, were excised, weighed, washed three times using saline, and subjected to fixation with 10% neutral buffered formalin. The tumor tissues were collected for H&E, TUNEL, and Ki67 staining. […] The survival of large tumor-bearing mice (300–500 mm^3 in size) was analyzed via Kaplan–Meier analysis (each group contained 5 mice).

JEG-3 cells = experiment: Mitochondrial transmembrane potential (JC-1, CLSM); assay type: cell-based, human; conditions: 1 μg/mL MTX-equivalent, 24 h
Method: Mitochondrial transmembrane potential changes induced by various MTX formulations were evaluated by the JC-1 probe. Briefly, JEG-3 cells were added to the confocal dish. Following culture for 24 h, the cells were treated with free MTX, MTX + Cy-lipid, Lipo@MTX, or Cy-Lipo@MTX at an equivalent MTX concentration (1 μg/mL) for 24 h. JC-1 solution was exchanged for cold PBS following two JC-1 staining buffer washes, after which samples were assessed by CLSM at λex (488 nm)/λem (530 nm) for green fluorescence and λex (525 nm)/λem (590 nm) for red fluorescence.

CN(Cc1cnc2nc(N)nc(N)c2n1)c1ccc(C(=O)N[C@@H](CCC(=O)O)C(=O)O)cc1 [free MTX, Methotrexate]
tumor volume (JEG-3 tumor models; day 24, 5 mg MTX-equivalent/kg i.v., six treatments, saline 2211.35 ± 236.66): 1210.14 ± 285.62 mm^3 | tumor weight (JEG-3 tumor models; end of treatment cycle (day 24), saline 3.24 ± 0.60): 2.35 ± 0.32 g | effect on mitochondrial transmembrane potential (JC-1 red fluorescence) (JEG-3 cells): a certain destructive effect on the MMP
